One experiment concerns NCl. As to the kind of experiment: Toxicity test on cells, NCl. Type of experiment: cell-based. Conditions: 48 hours of treatment, Hoechst nuclei staining. As for the experimental part: (§1) The compounds according to the invention were also tested on the cell lines HuH7, CaCo-2, HCT116, PC3, NCl, HacaT and Fibroblasts.
(§2) Operating Procedure: The cells were cultivated according to the ECACC recommendations. The toxicity test of the compounds on these cells was conducted as follows: 4×10^3 cells/well were sown in 96 wells. 24 hours after sowing the cells, the cells were exposed to increased concentrations of the compounds (0.1 μM-0.3 μM-0.9 μM-2.7 μM-8.3 μM-25 μM). After 48 hours of treatment, the cells were washed in PBS and bound in a cold ethanol/acetic acid (90/5) mixture for 20 minutes. Next, the nuclei were coloured with […] (Sigma). The acquisition of images and the analysis was carried out by means of a reader Cellomics ArrayScan VTI/HCS (Thermo Scientific).

For a further experiment, the target named is PI3Kδ (Homo sapiens, UniProt O00329). As to the kind of experiment: PI3Kδ kinase activity, Adapta TR-FRET ADP detection. It is filed as biochemical. The settings on record: purified p110δ/p85α heterodimer; read-out: Kinases IC50 PI3Kδ. As for the experimental part:
(§3) The activity of the PI3Kα kinase was evaluated by using a purified heterodimer (reference: PV4788 from Invitrogen) consisting of the α catalytic p110 subunit (PIK3CA) and the α regulation p85 subunit (PIK3R1). The assay of the kinase with the kit Adapta™ (reference: PV5099 from Invitrogen) is an enzymatic test based on the detection of ADP, produced during the reaction, by the fluorescence technique TR-FRET. It took place in a 384-well plate and was able to be divided into two phases: an enzymatic reaction phase, and a phase for detecting the ADP level.
(§4) During the enzymatic reaction phase, the following components were mixed in 10 μL of a same well: 2.5 μL of each dilution in series of inhibitors taken up in DMSO and then diluted to 1/25 in the reaction buffer (250 mM HEPES pH 7.5, 500 mM NaCl, 0.15 CHAPS, 5 mM EGTA, 15 mM MgCl2 and 1 mM DTT, ref.: PV5101 from Invitrogen), 2.5 μL of a solution containing PI3K at the optimum concentration (concentration defined according to the optimization step described in the operating procedure of the kit) diluted in the same reaction buffer, and finally, 5 μL of a solution containing 20 μM ATP and 100 μM PIP2 diluted in the reaction buffer. For each inhibitor concentration, the reaction was conducted in three copies (triplicate). The reaction was then incubated for 60 min at room temperature without any stirring in darkness.
(§5) During the phase for detecting ADP, 5 μL of a detection solution containing an anti-ADP antibody labeled with europium (6 nM), a tracer of the Alexa Fluor® 647 type coupled with ADP (30 nM), and EDTA (30 mM, for stopping the kinase reaction) were diluted in the dilution buffer (reference: PV3574 from Invitrogen). After 30 min of incubation at room temperature with stirring (40 rpm) in darkness, the 384-well plates were read in a plate reader Victor V configured for HTRF (Perkin Elmer). The excitation was produced at 340 nm and emission was measured at 665 nm and 615 nm. The inhibition curve was then plotted according to the emission ratio at 665 nm/615 nm versus the inhibitor concentration.
(§6) In order to obtain a linear response of the signal, a titration curve ATP-ADP, corresponding to the conversion % of ATP into ADP, was achieved by varying both of these species while keeping [ADP]+[ATP]=10 μM. The emission ratio at 665 nm/615 nm resulting from this (Y) was plotted versus the conversion % of ATP into ADP (X). The data of this curve were formatted according to a model with three hyperbolic parameters from the following equation: Y=C+A*(1−(X/(B+X))).
(§7) The software package GraphPad™ Prism® thus allows calculation of the parameters A, B and C. A conversion % corresponds to an emission ratio 665 nm/615 nm, this percentage is calculated by using the following equation: Conversion %=B*(C+A−Ratio)/(Ratio−C)
(§8) The three parameters A, B and C having been defined by the preceding equation, the conversion % was therefore able to be plotted versus the inhibitor concentration. The amount of inhibitor required for causing a 50% variation in the % conversion of ATP into ADP corresponds to the IC50 value of the inhibitor.
(§9) The activity of the kinase PI3Kγγ (PV4786 from Invitrogen) was evaluated on the p110γγ catalytic subunit (PI3KCG) and that of the kinase PI3Kδδ on the purified heterodimer (PV5273) respectively consisting of the δδ catalytic p110 subunit (PIK3CD) and the α regulation p85 subunit (PIK3R1) by following the same procedure.
Background: In TR-FRET formats the signal depends on donor and acceptor labels being close together.

For the next experiment, the target named is PI3Kγ (Homo sapiens, UniProt P48736). The experiment in a line: PI3Kγ kinase activity, Adapta TR-FRET ADP detection. It is filed as biochemical. Conditions: p110γ catalytic subunit; read-out: Kinases IC50 PI3Kγ. As for the experimental part: as §3, §4, §5, §6, §7, §8, §9
PI3Kγ, sequence (P48736 whole entry): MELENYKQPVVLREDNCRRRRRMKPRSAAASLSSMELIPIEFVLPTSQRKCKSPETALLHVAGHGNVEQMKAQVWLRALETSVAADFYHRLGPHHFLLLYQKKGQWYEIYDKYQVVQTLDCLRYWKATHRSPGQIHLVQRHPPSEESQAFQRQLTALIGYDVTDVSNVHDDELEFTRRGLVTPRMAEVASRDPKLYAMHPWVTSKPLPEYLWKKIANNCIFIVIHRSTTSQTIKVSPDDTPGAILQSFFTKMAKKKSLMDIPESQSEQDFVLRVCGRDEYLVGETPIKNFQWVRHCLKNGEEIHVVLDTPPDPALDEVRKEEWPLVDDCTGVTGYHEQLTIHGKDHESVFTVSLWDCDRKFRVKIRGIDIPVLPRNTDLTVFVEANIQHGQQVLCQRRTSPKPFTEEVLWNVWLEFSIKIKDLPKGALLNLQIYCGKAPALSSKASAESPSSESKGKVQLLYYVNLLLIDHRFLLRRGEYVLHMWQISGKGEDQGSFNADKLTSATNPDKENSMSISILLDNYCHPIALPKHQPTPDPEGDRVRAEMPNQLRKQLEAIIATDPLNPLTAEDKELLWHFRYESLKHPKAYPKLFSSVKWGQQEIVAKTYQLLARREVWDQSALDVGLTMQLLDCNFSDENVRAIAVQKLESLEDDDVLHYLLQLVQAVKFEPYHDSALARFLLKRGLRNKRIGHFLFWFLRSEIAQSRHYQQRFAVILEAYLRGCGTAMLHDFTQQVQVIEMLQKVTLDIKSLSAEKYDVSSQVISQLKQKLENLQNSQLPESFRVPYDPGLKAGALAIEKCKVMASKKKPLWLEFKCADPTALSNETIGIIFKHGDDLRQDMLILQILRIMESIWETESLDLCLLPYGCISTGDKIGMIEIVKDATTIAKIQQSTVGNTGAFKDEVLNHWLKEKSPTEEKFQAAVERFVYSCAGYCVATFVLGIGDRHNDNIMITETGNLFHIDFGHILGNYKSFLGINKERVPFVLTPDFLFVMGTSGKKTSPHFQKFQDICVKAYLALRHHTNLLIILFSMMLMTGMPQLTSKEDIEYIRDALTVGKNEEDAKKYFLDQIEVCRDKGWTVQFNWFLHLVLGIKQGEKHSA
The next experiment relates to HCT116. As to the kind of experiment: Toxicity test on cells, HCT116. The settings on record: Homo sapiens, HCT-116; 48 hours of treatment, Hoechst nuclei staining. It is filed as cell-based. On the procedure: as §1, §2
The test system of the next experiment is PC3. As to the kind of experiment: Toxicity test on cells, PC3. Conditions: Homo sapiens, PC-3; 48 hours of treatment, Hoechst nuclei staining. Type of experiment: cell-based. As for the experimental part: as §1, §2
Another experiment concerns Fibroblasts. The experiment in a line: Toxicity test on cells, Fibroblasts. Conditions: Fibroblast; 48 hours of treatment, Hoechst nuclei staining. It is filed as cell-based. As for the experimental part: as §1, §2
The test system of a further experiment is HacaT. The experiment in a line: Toxicity test on cells, HacaT. It is filed as cell-based. The settings on record: Homo sapiens, 48 hours of treatment, Hoechst nuclei staining. As for the experimental part:
as §1, §2

In a further experiment the target is PI3Kα (Homo sapiens, UniProt P42336). The experiment in a line: PI3Kα kinase activity, Adapta TR-FRET ADP detection. It is filed as biochemical. The settings on record: purified p110α/p85α heterodimer, triplicate; read-out: Kinases IC50 PI3Kα. On the procedure: as §3, §4, §5, §6, §7, §8
PI3Kα, sequence (P42336 whole entry): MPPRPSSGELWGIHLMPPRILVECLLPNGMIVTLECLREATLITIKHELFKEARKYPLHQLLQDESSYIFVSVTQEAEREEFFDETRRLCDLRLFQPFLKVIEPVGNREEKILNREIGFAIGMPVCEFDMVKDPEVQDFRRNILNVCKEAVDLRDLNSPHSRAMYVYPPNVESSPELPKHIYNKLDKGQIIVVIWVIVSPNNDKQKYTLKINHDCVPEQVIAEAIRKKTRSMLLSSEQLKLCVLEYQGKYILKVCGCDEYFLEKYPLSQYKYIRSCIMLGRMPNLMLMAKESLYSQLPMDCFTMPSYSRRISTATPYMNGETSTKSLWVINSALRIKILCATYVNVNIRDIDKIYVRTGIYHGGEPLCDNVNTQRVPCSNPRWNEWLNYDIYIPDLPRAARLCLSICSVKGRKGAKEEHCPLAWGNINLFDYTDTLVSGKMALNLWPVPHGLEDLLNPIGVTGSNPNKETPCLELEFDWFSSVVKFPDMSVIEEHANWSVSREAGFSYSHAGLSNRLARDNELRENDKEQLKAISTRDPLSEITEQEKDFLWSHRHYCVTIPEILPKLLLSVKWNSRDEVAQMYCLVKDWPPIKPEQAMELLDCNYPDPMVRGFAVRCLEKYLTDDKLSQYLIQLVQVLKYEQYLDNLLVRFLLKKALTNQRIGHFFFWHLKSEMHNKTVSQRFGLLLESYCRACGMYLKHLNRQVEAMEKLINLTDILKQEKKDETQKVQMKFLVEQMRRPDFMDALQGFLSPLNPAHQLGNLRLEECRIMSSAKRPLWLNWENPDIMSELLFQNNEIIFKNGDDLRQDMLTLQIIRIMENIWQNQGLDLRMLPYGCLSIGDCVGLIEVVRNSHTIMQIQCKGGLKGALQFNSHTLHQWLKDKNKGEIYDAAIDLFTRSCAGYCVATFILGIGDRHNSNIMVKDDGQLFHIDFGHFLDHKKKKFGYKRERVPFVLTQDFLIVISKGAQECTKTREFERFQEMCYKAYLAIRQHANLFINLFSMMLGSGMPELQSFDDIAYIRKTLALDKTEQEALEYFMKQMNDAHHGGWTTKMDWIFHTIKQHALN
PI3Kα, sequence (P27986 whole entry partner): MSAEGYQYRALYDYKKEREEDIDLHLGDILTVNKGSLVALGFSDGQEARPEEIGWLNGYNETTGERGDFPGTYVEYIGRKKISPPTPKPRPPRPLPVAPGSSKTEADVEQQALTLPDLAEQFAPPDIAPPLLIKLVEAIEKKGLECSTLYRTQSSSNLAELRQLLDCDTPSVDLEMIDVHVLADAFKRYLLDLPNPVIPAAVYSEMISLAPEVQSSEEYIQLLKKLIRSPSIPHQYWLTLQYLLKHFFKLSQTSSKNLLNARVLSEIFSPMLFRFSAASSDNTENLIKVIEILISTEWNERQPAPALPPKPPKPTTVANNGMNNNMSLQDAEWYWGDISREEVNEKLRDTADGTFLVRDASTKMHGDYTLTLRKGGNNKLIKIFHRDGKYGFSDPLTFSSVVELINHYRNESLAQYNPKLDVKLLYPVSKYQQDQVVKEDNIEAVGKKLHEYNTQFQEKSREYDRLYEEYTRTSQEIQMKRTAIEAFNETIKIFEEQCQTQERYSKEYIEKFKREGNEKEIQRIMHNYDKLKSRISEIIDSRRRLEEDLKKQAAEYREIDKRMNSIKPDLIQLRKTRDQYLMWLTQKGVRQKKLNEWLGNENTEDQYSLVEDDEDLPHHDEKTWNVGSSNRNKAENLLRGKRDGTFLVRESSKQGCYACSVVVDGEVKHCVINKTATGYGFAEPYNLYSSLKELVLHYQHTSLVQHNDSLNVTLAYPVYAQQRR
A further experiment relates to CaCo2. The experiment in a line: Toxicity test on cells, CaCo2. It is filed as cell-based. The settings on record: Homo sapiens, Caco-2; 48 hours of treatment, Hoechst nuclei staining. On the procedure:
as §1, §2

A further experiment has as its target mTOR (Homo sapiens, UniProt P42345). As to the kind of experiment: mTOR kinase activity, LANCE Ultra TR-FRET. The settings on record: truncated mTOR protein, triplicate; read-out: Kinases IC50 mTOR. Type of experiment: biochemical. On the procedure:
The activity of the mTOR kinase was evaluated by using a purified truncated protein of the amino acids 1-1359 (reference: PV4753 from Invitrogen). The assay of the activity of the enzyme was carried out with the kit LANCE® Ultra which is an enzymatic test based on the detection of a phosphorylated peptide produced during the reaction, by using the fluorescence technique TR-FRET. It took place in a 384-well plate and was able to be divided into two phases: an enzymatic reaction phase and a phase for detecting the phosphorylated peptide.
During the enzymatic reaction phase, the following components were mixed in 10 μL of a same well: 5 μL of each dilution in series of inhibitors taken up in DMSO and then diluted to 1/25 in the reaction buffer (50 mM HEPES pH 7.5, 0.1% Tween-20, 1 mM EGTA, 10 mM MnCl2, 3 mM MgCl2 and 2 mM of DTT), 2.5 μL of a solution containing mTOR at the optimum concentration (concentration defined according to the optimization step described in the operating procedure of the kit) diluted in the same reaction buffer, and finally 2.5 μL of a solution containing 40 μM of ATP and 200 μM non-phosphorylated peptide diluted in the reaction buffer. For each inhibitor concentration, the reaction was conducted in three copies (triplicate). The reaction was then incubated for 120 min at room temperature without any stirring in darkness.
During the phase for detecting the phosphorylated peptide, 5 μL of an EDTA solution (32 mM) diluted in the dilution buffer (ref.: CR97-100 from Perkin Elmer) were injected into each well. After 5 min of incubation with stirring, 5 μL of a phosphorylated anti-peptide antibody solution labeled with europium (8 nM) and diluted in the same dilution buffer was added into each well. After 60 min of incubation at room temperature with stirring (40 rpm) in darkness, the 384-well plates were read in a plate reader Victor V configured for HTRF (Perkin Elmer). […] The inhibition curve was then plotted according to the fluorescence intensity value at 665 nm versus the inhibitor concentration.
The amount of inhibitor required for causing a 50% variation in the intensity of the signal corresponds to the IC50 value of the inhibitor.

The subject of a further experiment is MDA. As to the kind of experiment: Toxicity test on cells, MDA. The settings on record: 48 hours of treatment, Hoechst nuclei staining. It is filed as cell-based. As for the experimental part:
[The procedure below names another cell line; the source lists this cell line under the same test.] as §1, §2

Another experiment deals with HUH7. As to the kind of experiment: Toxicity test on cells, HUH7. Type of experiment: cell-based. The settings on record: Homo sapiens, Huh-7; 48 hours of treatment, Hoechst nuclei staining. As for the experimental part:
as §1, §2

For seven compounds, IC50 results are on record in patent US10202372B2, “Trisubstituted pyrido[2,3-D]pyrimidines, methods for preparing same and therapeutic uses thereof” (CENTRE NATIONAL DE LA RECHERCHE SCIENTIFIQUE (C.N.R.S), priority 2012, dated 2019).

Structures are written as SMILES. Counter-ions that a name gives are not always drawn.

mTOR, sequence (P42345 1360-2549): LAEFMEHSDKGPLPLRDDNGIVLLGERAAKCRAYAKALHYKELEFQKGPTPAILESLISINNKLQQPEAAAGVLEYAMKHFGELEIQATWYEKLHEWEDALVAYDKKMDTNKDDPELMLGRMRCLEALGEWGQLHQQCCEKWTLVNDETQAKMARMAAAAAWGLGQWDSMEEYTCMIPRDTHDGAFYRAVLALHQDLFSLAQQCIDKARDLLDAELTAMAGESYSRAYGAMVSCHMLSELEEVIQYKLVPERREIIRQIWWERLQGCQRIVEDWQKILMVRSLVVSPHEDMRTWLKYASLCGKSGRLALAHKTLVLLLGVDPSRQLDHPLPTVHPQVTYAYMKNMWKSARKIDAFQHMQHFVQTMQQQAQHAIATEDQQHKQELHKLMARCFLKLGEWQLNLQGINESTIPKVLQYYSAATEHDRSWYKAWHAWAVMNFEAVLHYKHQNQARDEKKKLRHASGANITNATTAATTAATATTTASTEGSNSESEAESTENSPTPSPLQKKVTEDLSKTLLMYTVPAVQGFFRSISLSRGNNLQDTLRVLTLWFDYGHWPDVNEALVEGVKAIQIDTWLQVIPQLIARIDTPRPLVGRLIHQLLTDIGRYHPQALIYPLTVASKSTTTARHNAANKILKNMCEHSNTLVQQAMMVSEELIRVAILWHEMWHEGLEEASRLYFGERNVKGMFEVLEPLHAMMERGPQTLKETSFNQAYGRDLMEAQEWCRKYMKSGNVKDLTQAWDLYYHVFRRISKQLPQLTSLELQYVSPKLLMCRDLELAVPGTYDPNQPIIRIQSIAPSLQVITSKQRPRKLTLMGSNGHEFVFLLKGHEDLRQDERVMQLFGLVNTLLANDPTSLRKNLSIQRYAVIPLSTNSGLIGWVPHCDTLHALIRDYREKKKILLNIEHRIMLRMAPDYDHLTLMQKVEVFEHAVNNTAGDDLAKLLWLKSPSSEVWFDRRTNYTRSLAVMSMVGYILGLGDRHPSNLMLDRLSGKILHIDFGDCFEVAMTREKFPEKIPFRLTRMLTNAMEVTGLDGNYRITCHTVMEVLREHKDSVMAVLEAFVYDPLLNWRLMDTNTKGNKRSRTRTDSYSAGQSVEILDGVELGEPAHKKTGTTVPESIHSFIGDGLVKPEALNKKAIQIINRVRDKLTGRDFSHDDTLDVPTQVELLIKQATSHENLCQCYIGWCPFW

Regarding `Oc1cccc(-c2nc(N3CCOCC3)c3ncc(Cl)cc3n2)c1` [Compound 6, 3-(7-Chloro-4-morpholinopyrido[3,2-d]pyrimidin-2-yl)phenol], the 50% inhibitory concentration (IC50) in the experiment with NCl is > 25 µM; on PI3Kδ, 0.01 µM; at PI3Kγ, 0.273 µM; in the experiment on HCT116, 9 µM; in the experiment on PC3 it was > 25 µM; with Fibroblasts, > 25 µM. The half-inhibitory concentration (IC50) in the experiment with HacaT is 4 µM; on PI3Kα it was 0.012 µM; in the experiment with CaCo2, 8 µM; on mTOR, 0.183 µM; with MDA, > 25 µM; with HUH7, 0.8 µM.

On to `CN1CCN(Cc2cnc3c(N4CCOCC4)nc(-c4cccc(O)c4)nc3c2)CC1` [Compound 30, 3-(7-((4-methylpiperazin-1-yl)methyl)-4-morpholinopyrido[3,2-d]pyrimidin-2-yl)phenol hydrochloride], for which the IC50 is 15 µM in the experiment with NCl; 0.157 µM on PI3Kδ; 0.244 µM on PI3Kγ; 10 µM in the experiment on HCT116; 7 µM in the experiment on PC3; > 25 µM in the experiment on Fibroblasts. Further, the IC50 turned out to be 8 µM with HacaT; 0.391 µM on PI3Kα; 2 µM with CaCo2; 2.2 µM at mTOR; 20 µM in the experiment with MDA; 5 µM in the experiment on HUH7.

With `Oc1cccc(-c2nc(N3CCOCC3)c3ncc(CNC4CCCCC4)cc3n2)c1` [Compound 28, 3-(7-((cyclohexylamino)methyl)-4-morpholinopyrido[3,2-d]pyrimidin-2-yl)phenol hydrochloride], the IC50 in the experiment with NCl was 25 µM; on PI3Kδ, 0.213 µM; on PI3Kγ, 0.769 µM; in the experiment on HCT116, 20 µM; in the experiment with PC3, 25 µM; in the experiment on Fibroblasts, > 25 µM. Also, the IC50 was 20 µM with HacaT; 0.358 µM on PI3Kα; 10 µM in the experiment with CaCo2; 1.2 µM on mTOR; > 25 µM with MDA; 15 µM with HUH7.

Turning to `C=Cc1cnc2c(N3CCOCC3)nc(-c3cccc(CO)c3)nc2c1` [Compound 17, (3-(4-Morpholino-7-vinylpyrido[3,2-d]pyrimidin-2-yl)phenyl)methanol], the IC50 in the experiment with NCl was > 25 µM; in the experiment with HCT116, 6 µM; in the experiment with PC3, 25 µM; in the experiment on Fibroblasts it was > 25 µM; in the experiment with HacaT it was 4 µM; in the experiment with CaCo2 it was 5 µM. Also, the half-maximal inhibitory concentration (IC50) in the experiment with MDA is > 25 µM; in the experiment on HUH7 it was 15 µM.

`COCc1cn(Cc2cnc3c(N4CCOCC4)nc(-c4ccc(NC(=O)Nc5ccc(CO)cc5)cc4)nc3c2)nn1` [Compound 81, 1-[4-(hydroxymethyl)phenyl]-3-[4-(7-{[4-(methoxymethyl)-1H-1,2,3-triazol-1-yl]methyl}-4-(morpholin-4-yl)pyrido[3,2-d]pyrimidin-2-yl)phenyl]urea]: the 50% inhibitory concentration (IC50) with NCl is 0.3 µM; in the experiment on HCT116, 0.1 µM; in the experiment on PC3 it was 0.1 µM; in the experiment on Fibroblasts, > 25 µM; with HacaT it was 0.3 µM; at PI3Kα, 0.003 µM. Besides, the half-inhibitory concentration (IC50) in the experiment with CaCo2 was 2 µM; in the experiment on MDA, 0.5 µM; in the experiment on HUH7, 7 µM.

Consider `Oc1cccc(-c2nc(N3CCOCC3)c3ncc(CN4CCN(C5CCCCC5)CC4)cc3n2)c1` [Compound 56, 3-{7-[(4-cyclohexylpiperazin-1-yl)methyl]-4-(morpholin-4-yl)pyrido[3,2-d]pyrimidin-2yl}phenol], for which the 50% inhibitory concentration (IC50) with NCl amounted to 11 µM; in the experiment with HCT116 it was 7 µM; in the experiment with PC3, 8 µM; in the experiment with Fibroblasts, 10 µM; with HacaT, 8 µM; on PI3Kα, 0.011 µM. The 50% inhibitory concentration (IC50) stood at 6 µM with CaCo2, 12 µM with MDA and 6 µM in the experiment with HUH7.

As to `C=Cc1cnc2c(N3CCOCC3)nc(-c3cccc(O)c3)nc2c1` [Compound 14, 3-(4-morpholino-7-vinylpyrido[3,2-d]pyrimidin-2-yl)phenol], the IC50 in the experiment on NCl was 20 µM; on PI3Kδ, 0.011 µM; on PI3Kγ, 0.196 µM; in the experiment on HCT116 it was 5 µM; in the experiment on PC3, 20 µM; in the experiment on Fibroblasts it was > 25 µM. The IC50 amounted to 0.098 µM on PI3Kα; 1.5 µM in the experiment with CaCo2; 0.109 µM at mTOR; 20 µM with MDA; 20 µM in the experiment with HUH7.

As a reminder, the IC50 is the concentration that gives 50% inhibition.
